Consider one compound from paper PMC12933331, “A Cryptic Pocket Allosterically Modulates Oligosaccharide Binding to DC-SIGN” (JACS Au, 2026).

Each structure is given as a SMILES string. Numbering of substitutions follows the chain as printed.

Experiment in all cases: Plate-based horseradish peroxidase assay
Common to all, as to assay type: binding
Common to all, as to conditions: 1 µg mL-1 HRP, 25 mM CaCl2

One assay has as its target T1, DC-SIGN ECD T314A (Homo sapiens, UniProt Q9NNX6, T314A).
T1 construct: acids 64 -404 of DC -SIGN; made in house
T1 sequence (Q9NNX6 64-404 T314A): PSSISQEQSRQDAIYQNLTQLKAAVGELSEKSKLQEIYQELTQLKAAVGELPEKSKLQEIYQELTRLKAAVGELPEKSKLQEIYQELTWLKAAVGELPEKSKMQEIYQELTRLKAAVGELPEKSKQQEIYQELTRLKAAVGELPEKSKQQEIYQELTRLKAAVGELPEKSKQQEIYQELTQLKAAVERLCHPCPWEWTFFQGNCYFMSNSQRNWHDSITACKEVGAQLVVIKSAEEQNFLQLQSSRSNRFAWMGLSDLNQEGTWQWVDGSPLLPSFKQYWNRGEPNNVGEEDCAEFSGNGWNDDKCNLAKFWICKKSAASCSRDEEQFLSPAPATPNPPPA

Another assay concerns the target T2, DC-SIGN ECD wildtype (Homo sapiens, UniProt Q9NNX6).
T2 construct: acids 64 -404 of DC -SIGN; made in house
T2 sequence (Q9NNX6 64-404): T1 sequence (Q9NNX6 64-404 T314A) with A251T
As for the experimental part:
(§1) chromatography. Purified protein was dialyzed against 25 mM HEPES, 150 mM NaCl, 10 mM CaCl2, pH 7.4, concentrated using a centrifugal spin filter, snap frozen and then stored at -80°C. […]
(§2) Plate-based horseradish peroxidase assay
(§3) General remarks. Unless stated otherwise, all reagents and buffers were obtained from Sigma Aldrich or Carl Roth. Measurements were done on a Enspire Multimode Plate Reader (PerkinElmer). GraphPad Prism was used for all data processing and analysis.
(§4) CaCl2 titration. 100 µg mL-1 DC-SIGN ECD were immobilized in immobilization buffer (25 mM HEPES, 150 mM NaCl, 25 mM CaCl 2, pH 7.4) overnight at 4°C on transparent Nunc Maxisorp 96-well plates (Thermo Fisher). Protein solution was removed, and plates were washed three times with immobilization buffer and then blocked for 2 hours at 4°C with blocking buffer (25 mM HEPES, 150 mM NaCl, 25 mM CaCl 2, 2% BSA, 0.01% Tween -20). Plates were washed twice with 25 mM HEPES, 150 mM NaCl, 5 mM EDTA, pH 7.4 and twice with 25 mM HEPES, 150 mM NaCl, pH 7.4 to remove residual Ca 2+. To titrate Ca2+, CaCl2 in 25 mM HEPES, 150 mM NaCl, pH 7.4 was serially diluted on the plate at a constant HRP concentration of 1 µg mL-1 and then incubated at RT for 2 hours. Following incubation, plates were washed three times with 25 mM HEPES, 150 mM NaCl, pH 7.4 and bound HRP was detected using a TMB substrate kit (Thermo Fisher) and 0.18 M H2SO4 according to manufacturer’s instructions. Absorption was […]
(§5) HRP titration. Immobilization and blocking were done as described above. After blocking, plates were washed three times with immobilization buffer. HRP in immobilization buffer was serially diluted on the plate at a constant concentration CaCl2 concentration of 25 mM and then incubated […]
(§6) at RT for 2 hours. Following incubation, plates were washed three times with immobilization buffer and HRP was detected as described above.
(§7) Immobilization and blocking were done as described above. After blocking, plates were washed three times with immobilization buffer. Mannose in immobilization buffer containing 1 µg mL-1 HRP was serially diluted on the plate and then incubated at RT for 2 hours.
(§8) Following incubation, plates were washed three times with immobilization buffer and HRP was detected as described above.
(§9) All conditions were measured in technical triplicates, averaged and normalized to the control well […]
(§10) IC50 and EC50 values and hill […]
(§11) slopes (nH) were obtained in a four-parameter fit according to equation (1).
(§12) Y = bottom + top − bottom (1)
(§13) With bottom and top representing the minimal and maximal response plateaus, respectively, Y as the observed response and X the logarithmic concentration of the ligand . […]
(§14) Biosynth. Spectra were processed in TopSpin 4.2.0 and data analysis was performed using CCPN Analysis 3.2.0 for 2D spectra and in MestreNova for 1D spectra.2 Further analysis was done using GraphPad Prism and in-house python scripts.

A further assay concerns the target T3, DC-SIGN ECD M270F (Homo sapiens, UniProt Q9NNX6, M270F).
T3 construct: acids 64 -404 of DC -SIGN; made in house
T3 sequence (Q9NNX6 64-404 M270F): T1 sequence (Q9NNX6 64-404 T314A) with M207F, A251T
How it is done:
as §1, §2, §3, §4, §5, §6, §7, §8, §9, §10, §11, §12, §13, §14

Where [1] appears, read: read-out: IC50, inhibition of HRP binding.

One may read the IC50 as the concentration that gives 50% inhibition. With `OC[C@H]1OC(O)[C@@H](O)[C@@H](O)[C@@H]1O` (some centres unmarked) [mannose], the “hill slope, inhibition of HRP binding” value at DC-SIGN ECD T314A was -2.1; on DC-SIGN ECD wildtype, -1.8; on DC-SIGN ECD M270F, -1.5. The IC50 at DC-SIGN ECD wildtype (setting [1]) turned out to be 2300 µM; on DC-SIGN ECD M270F (setting [1]) it was 3100 µM.
